We go through 1 compound from PMC2717892 (2009).

The structures appear in SMILES notation.

The assay concerns T5 (DNA, single strand) TTTTT. The assay can be described thus: direct excitation Eu. The following applies: 50 mM NaNO3; 20 mM HEPES pH 7.0; 25 µM complex; 5–50 µM nucleic acid.

For `NC(=O)CN1CCN(CC(N)=O)CCN(Cc2ccc(CN3CCN(CC(N)=O)CCN(CC(N)=O)CCN(CC(N)=O)CC3)cc2)CCN(CC(N)=O)CC1.O.O.O.O.[Eu+3].[Eu+3]`, the binding entry is reported as “weak”.
